The record followed here is patent publication US7807720B2 (priority 2007, dated 2010).

By pKi is commonly meant the Ki on a negative log10 scale, so that one unit is a factor of ten. A lower pKi goes with a large Ki.

pKi: −log10 of the molar value.

In this test the target is Bacillus anthracis lethal factor protease (Bacillus anthracis, UniProt P15917). The experiment in a line: biochemical.
Sequence of Bacillus anthracis lethal factor protease (P15917 34-809 limits assumed): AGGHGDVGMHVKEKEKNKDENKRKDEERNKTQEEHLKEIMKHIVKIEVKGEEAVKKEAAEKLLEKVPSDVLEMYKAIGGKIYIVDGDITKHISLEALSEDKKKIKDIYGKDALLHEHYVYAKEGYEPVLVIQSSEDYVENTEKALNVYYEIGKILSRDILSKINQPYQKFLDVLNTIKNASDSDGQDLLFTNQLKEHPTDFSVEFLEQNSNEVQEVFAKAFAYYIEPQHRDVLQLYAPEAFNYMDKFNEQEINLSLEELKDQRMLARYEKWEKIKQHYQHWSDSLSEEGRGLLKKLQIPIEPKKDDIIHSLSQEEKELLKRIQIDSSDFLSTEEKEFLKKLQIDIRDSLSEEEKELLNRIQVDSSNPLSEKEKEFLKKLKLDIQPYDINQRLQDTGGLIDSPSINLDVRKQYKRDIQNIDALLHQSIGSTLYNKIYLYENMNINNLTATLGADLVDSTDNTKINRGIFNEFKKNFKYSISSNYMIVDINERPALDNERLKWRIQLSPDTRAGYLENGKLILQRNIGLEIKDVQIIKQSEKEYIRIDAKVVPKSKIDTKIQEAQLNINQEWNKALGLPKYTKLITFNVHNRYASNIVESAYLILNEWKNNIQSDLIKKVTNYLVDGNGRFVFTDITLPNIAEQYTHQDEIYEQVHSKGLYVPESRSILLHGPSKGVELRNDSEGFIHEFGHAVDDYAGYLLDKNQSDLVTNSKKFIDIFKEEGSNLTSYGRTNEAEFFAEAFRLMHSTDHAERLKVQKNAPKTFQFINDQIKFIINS
`Cc1cc(C[C@H](CCCCNCc2ccccc2)C(=O)NO)cc(C)c1F` [Compound 168149, (S)-6-Benzylamino-2-(4-fluoro-3,5-dimethyl-benzyl)-hexanoic acid hydroxyamide]: the pKi was 6.89.
Turning to `Cc1cc(CCC(=O)NO)cc(C)c1F` [Compound 167857, 3-(4-Fluoro-3,5-dimethyl-phenyl)-N-hydroxy-propionamide], the pKi was 5.87.
In turn, `Cc1cc(CCCN(C)CC[C@@H](Cc2ccc(Cl)cc2)C(=O)NO)ccc1F` [Compound 168150, 2R-(4-Chloro-benzyl)-4-{[3-(4-fluoro-3-methyl-phenyl)-propyl]-methyl-amino}-N-hydroxy-butyramide] gave a pKi of 5.76.
`Cc1cc(C[C@@H](CCC/C=C/C(C)C)C(=O)NO)cc(C)c1F` [Compound 168051, (R)-2-(4-Fluoro-3,5-dimethyl-benzyl)-8-methyl-non-6-enoic acid hydroxyamide] gave a pKi of 4.29.
As for `Cc1cc(C[C@H](CCCCNCc2cnccn2)C(=O)NO)cc(C)c1F` [Compound 168179, (S)-2-(4-Fluoro-3,5-dimethyl-benzyl)-6-[(pyrazin-2-ylmethyl)-amino]-hexanoic acid hydroxyamide], the pKi is 6.15.
In the case of `CCCCC(Cc1ccc(F)c(C)c1)C(=O)NO` (centres unmarked) [Compound 167266, 2-(4-Fluoro-3-methyl-benzyl)-hexanoic acid hydroxyamide] it was 5.64.
Under `Cc1cc(C[C@H](CCCCNCc2ccc(Cl)cc2)C(=O)NO)cc(C)c1F` [Compound 168125, (S)-6-(4-Chloro-benzylamino)-2-(4-fluoro-3,5-dimethyl-benzyl)-hexanoic acid hydroxyamide] stands 6.72; under `Cc1cc(C[C@@H](C(=O)NO)c2ccc(Br)cc2)cc(C)c1F` [Compound 168009, (R)-2-(4-Bromo-phenyl)-3-(4-fluoro-3,5-dimethyl-phenyl)-N-hydroxy-propionamide], 6.11.
`Cc1cc(CNCCCC[C@@H](Cc2ccc(F)c(C)c2)C(=O)NO)ccc1F` [Compound 168139, (S)-2-(4-Fluoro-3-methyl-benzyl)-6-(4-fluoro-3-methyl-benzylamino)-hexanoic acid hydroxyamide] gave a pKi of 6.55.
`Cc1cc(C[C@H](CCCCCC(C)C)C(=O)NO)cc(C)c1F` [Compound 168031, (S)-2-(4-Fluoro-3,5-dimethyl-benzyl)-8-methyl-nonanoic acid hydroxyamide] gave a pKi of 5.58.
Under `O=C(NO)[C@@H](CCCCNCc1ccc(F)cc1)Cc1ccc(F)c(Cl)c1` [Compound 168164, (S)-2-(3-Chloro-4-fluoro-benzyl)-6-(4-fluoro-benzylamino)-hexanoic acid hydroxyamide] stands 6.70.
`Cc1cc(C[C@H](CCCCNCCCc2ccc(F)cc2)C(=O)NO)cc(C)c1F` [Compound 168123, (S)-2-(4-Fluoro-3,5-dimethyl-benzyl)-6-[3-(4-fluoro-phenyl)-propylamino]-hexanoic acid hydroxyamide] had a pKi of 7.33.
Take `Cc1cc(C[C@H](CCCCNCc2ccc3c(c2)OCO3)C(=O)NO)cc(C)c1F` [Compound 168148, (S)-6-[(Benzo[1,3]dioxol-5-ylmethyl)-amino]-2-(4-fluoro-3,5-dimethyl-benzyl)-hexanoic acid hydroxyamide]: the pKi was 6.66.
In the case of `Cc1cc(C[C@H](CCCCNCCc2ccc(F)cc2)C(=O)NO)cc(C)c1F` [Compound 168122, (S)-2-(4-Fluoro-3,5-dimethyl-benzyl)-6-[2-(4-fluoro-phenyl)-ethylamino]-hexanoic acid hydroxyamide] it was 7.19; in that of `Cc1ccc(CNCCCC[C@@H](Cc2cc(C)c(F)c(C)c2)C(=O)NO)o1` [Compound 168157, (S)-2-(4-Fluoro-3,5-dimethyl-benzyl)-6-[(5-methyl-furan-2-ylmethyl)-amino]-hexanoic acid hydroxyamide], 6.89; in that of `Cc1cc(CC(C(=O)NO)c2ccc(Br)cc2)cc(C)c1F` (centres unmarked) [Compound 167856, 2-(4-Bromo-phenyl)-3-(4-fluoro-3,5-dimethyl-phenyl)-N-hydroxy-propionamide], 6.21.
`Cc1cc(C[C@H](CCCCNCC2CCCCC2)C(=O)NO)cc(C)c1F` [Compound 168170, (S)-6-(Cyclohexylmethyl-amino)-2-(4-fluoro-3,5-dimethyl-benzyl)-hexanoic acid hydroxyamide] gave a pKi of 6.40. This pKi and that of the compound before are within 0.2 log units of each other.
Under `Cc1cc(CC(C)C(=O)NO)cc(C)c1F` (centres unmarked) [Compound 167858, 2-(4-fluoro-3,5-dimethylbenzyl)-N-hydroxypropanamide] stands 6.40; under `Cc1cc(CNCCCC[C@@H](Cc2cc(C)c(F)c(C)c2)C(=O)NO)ccc1F` [Compound 168050, (S)-2-(4-Fluoro-3,5-dimethyl-benzyl)-6-(4-fluoro-3-methyl-benzylamino)-hexanoic acid hydroxyamide], 7.13.
`Cc1cc(C[C@H](CCCCNCc2cccc(-c3ccccc3)c2)C(=O)NO)ccc1F` [Compound 168140, (S)-6-[(Biphenyl-3-ylmethyl)-amino]-2-(4-fluoro-3-methyl-benzyl)-hexanoic acid hydroxyamide] showed a pKi of 6.15.
Turning to `Cc1cc(C[C@H](CCCCNCc2cc3ccccc3s2)C(=O)NO)cc(C)c1F` [Compound 168180, (S)-6-[(Benzo[b]thiophen-2-ylmethyl)-amino]-2-(4-fluoro-3,5-dimethyl-benzyl)-hexanoic acid hydroxyamide], the pKi is 6.40.
In the case of `Cc1cc(C[C@H](CCCCN(C)Cc2ccc(F)cc2)C(=O)NO)cc(C)c1F` [Compound 168126, (S)-6-[(4-Fluoro-benzyl)-methyl-amino]-2-(4-fluoro-3,5-dimethyl-benzyl)-hexanoic acid hydroxyamide] it was 6.26; in that of `CCCCC(Cc1cc(C)c(F)c(C)c1)C(=O)NO` (centres unmarked) [Compound 167533, 2-(4-Fluoro-3,5-dimethyl-benzyl)-hexanoic acid hydroxyamide], 5.92; in that of `Cc1cc(C[C@@H](CCCCCC(C)C)C(=O)NO)cc(C)c1F` [Compound 168052, (R)-2-(4-Fluoro-3,5-dimethyl-benzyl)-8-methyl-nonanoic acid hydroxyamide], 3.52.
In the case of `Cc1cc(COCCCC[C@@H](Cc2cc(C)c(F)c(C)c2)C(=O)NO)ccc1F` [Compound 168141, (S)-2-(4-fluoro-3,5-dimethylbenzyl)-6-(4-fluoro-3-methylbenzyloxy)-N-hydroxyhexanamide] it was 5.44; in that of `Cc1cc(C[C@H](C(=O)NO)c2ccc(Br)cc2)cc(C)c1F` [Compound 167973, (S)-2-(4-Bromo-phenyl)-3-(4-fluoro-3,5-dimethyl-phenyl)-N-hydroxy-propionamide], 5.24.
For `CCC(CC)CNCCCC[C@@H](Cc1cc(C)c(F)c(C)c1)C(=O)NO` [Compound 168171, (S)-6-(2-Ethyl-butylamino)-2-(4-fluoro-3,5-dimethyl-benzyl)-hexanoic acid hydroxyamide], the pKi is 6.60.
`Cc1cc(CCCCCC[C@@H](Cc2ccc(Cl)cc2)C(=O)NO)ccc1F` [Compound 168134, (S)-2-(4-Chloro-benzyl)-8-(4-fluoro-3-methyl-phenyl)-octanoic acid hydroxyamide]: the pKi was 4.19.
`Cc1cc(CCCN(C)CC[C@@H](Cc2ccc(Cl)cc2)C(=O)NO)cc(C)c1F` [Compound 168156, 2R-(4-Chloro-benzyl)-4-{[3-(4-fluoro-3,5-dimethyl-phenyl)-propyl]-methyl-amino}-N-hydroxy-butyramide] gave a pKi of 5.48.
Compound `Cc1cc(C[C@H](CCC/C=C/C(C)C)C(=O)NO)cc(C)c1F` [Compound 168023, (S)-2-(4-Fluoro-3,5-dimethyl-benzyl)-8-methyl-non-6-enoic acid hydroxyamide] gave a pKi of 5.71. This pKi lies 0.23 log units higher than the previous one.
`Cc1cc(CC(CCN(C)CCCc2ccc(F)cc2)C(=O)NO)cc(C)c1F` (stereo in doubt) [Compound 168172, (S)-2-(4-Fluoro-3,5-dimethyl-benzyl)-4-{[3-(4-fluoro-phenyl)-propyl]-methyl-amino}-N-hydroxy-butyramide]: the pKi is 6.54.
For `Cc1cc(C[C@H](CCCCNc2ccc(F)cc2)C(=O)NO)cc(C)c1F` [Compound 168132, (S)-2-(4-Fluoro-3,5-dimethyl-benzyl)-6-(4-fluoro-phenylamino)-hexanoic acid hydroxyamide], the pKi was 5.65.
As to `Cc1cc(CCCCCC[C@@H](Cc2cc(C)c(F)c(C)c2)C(=O)NO)ccc1F` [Compound 168124, (S)-2-(4-Fluoro-3,5-dimethyl-benzyl)-8-(4-fluoro-3-methyl-phenyl)-octanoic acid hydroxyamide], the pKi is 4.99.
For the compound `Cc1cc(CC(C#N)C(=O)NO)cc(C)c1F` (centres unmarked) [Compound 167914, 2-Cyano-3-(4-fluoro-3,5-dimethyl-phenyl)-N-hydroxy-propionamide], the pKi was 4.32. This pKi lies 0.67 log units lower than the previous one.
Under `CCCC[C@@H](Cc1ccccc1)C(=O)NO` (stereo in doubt) [Compound 167550, 2-Benzyl-hexanoic acid hydroxyamide] stands 4.19.
